Consider 1 substance from article PMC6035176, “Chemo-manipulation of tumor blood vessels by a metal-based anticancer complex enhances antitumor therapy” (Scientific Reports, 2018).

This experiment concerns the target T1, Poly(ADP-Ribose) Polymerase type 1 (PARP-1) (Homo sapiens, UniProt P09874).
T1 construct: gene PARP1
The experiment in a line: in vitro colorimetric PARP-1 activity assay. In kind it is biochemical.

One may read the IC50 as the midpoint of a concentration-inhibition curve.

T1 sequence (P09874 2-1014): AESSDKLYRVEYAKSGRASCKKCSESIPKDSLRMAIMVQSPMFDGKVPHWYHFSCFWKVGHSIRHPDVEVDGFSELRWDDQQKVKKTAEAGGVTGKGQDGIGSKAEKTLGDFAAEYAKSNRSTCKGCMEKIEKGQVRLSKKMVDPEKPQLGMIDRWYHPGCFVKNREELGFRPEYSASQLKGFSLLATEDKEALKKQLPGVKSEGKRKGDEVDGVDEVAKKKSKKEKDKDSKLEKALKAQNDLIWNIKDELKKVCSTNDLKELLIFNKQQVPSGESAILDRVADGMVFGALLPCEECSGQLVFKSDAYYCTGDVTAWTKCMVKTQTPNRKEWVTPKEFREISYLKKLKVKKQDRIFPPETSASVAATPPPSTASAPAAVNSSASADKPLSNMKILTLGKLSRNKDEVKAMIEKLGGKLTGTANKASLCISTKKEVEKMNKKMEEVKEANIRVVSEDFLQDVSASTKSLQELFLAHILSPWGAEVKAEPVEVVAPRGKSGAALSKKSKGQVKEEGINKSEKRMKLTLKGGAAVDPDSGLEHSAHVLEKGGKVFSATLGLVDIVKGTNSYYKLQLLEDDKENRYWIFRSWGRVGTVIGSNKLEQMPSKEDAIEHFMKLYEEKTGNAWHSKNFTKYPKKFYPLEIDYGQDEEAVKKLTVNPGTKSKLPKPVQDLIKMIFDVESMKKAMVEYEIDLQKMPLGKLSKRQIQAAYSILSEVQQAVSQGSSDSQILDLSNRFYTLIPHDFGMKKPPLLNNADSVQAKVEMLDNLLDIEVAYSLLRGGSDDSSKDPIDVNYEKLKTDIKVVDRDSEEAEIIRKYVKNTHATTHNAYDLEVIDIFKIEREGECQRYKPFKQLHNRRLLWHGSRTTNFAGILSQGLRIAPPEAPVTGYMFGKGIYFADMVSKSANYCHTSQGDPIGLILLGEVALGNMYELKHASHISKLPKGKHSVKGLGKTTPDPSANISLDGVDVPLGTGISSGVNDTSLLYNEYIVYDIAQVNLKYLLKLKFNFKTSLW

RAPTA-T registered an IC50 of 400 µM.
